Reference: PubChem BioAssay AID256 (DTP/NCI, 2004)
Inconclusive results and toxic doses are left out. Rule for the calls: active = survival T/C of 150% or more; inactive = T/C below 125% in these data.

Tested on: CD2F1 mice, L1210 leukemia ip, survival T/C
Test: NCI In Vivo Anticancer Drug Screen. Data for tumor model L1210 Leukemia (intraperitoneal) in CD2F1 (CDF1) mice
Conditions: endpoint: mean survival time, higher = longer survival
Summary of the method: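 Mice carrying a transplanted tumor received test compound or vehicle alone. The value is the measurement in the treated group divided by that in the vehicle-treated control group.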

[1] = dose: 100.0 mg/kg/injection, schedule: Q04DX003 (ip), vehicle: saline
[2] = dose: 200.0 mg/kg/injection, schedule: Q04DX003 (ip), vehicle: saline
[3] = dose: 100.0 mg/kg/injection, schedule: Q04DX003 (ip), vehicle: saline with Tween-80
[4] = dose: 200.0 mg/kg/injection, schedule: Q04DX003 (ip), vehicle: saline with Tween-80
[5] = dose: 400.0 mg/kg/injection, schedule: Q04DX003 (ip), vehicle: saline with Tween-80
[6] = dose: 100.0 mg/kg/injection, schedule: Q01DX001 (ip), vehicle: saline with Tween-80
[7] = dose: 200.0 mg/kg/injection, schedule: Q01DX001 (ip), vehicle: saline with Tween-80
[8] = dose: 400.0 mg/kg/injection, schedule: Q01DX001 (ip), vehicle: saline with Tween-80
[9] = dose: 100.0 mg/kg/injection, schedule: Q01DX009 (ip), vehicle: saline with Tween-80
[10] = dose: 200.0 mg/kg/injection, schedule: Q01DX009 (ip), vehicle: saline with Tween-80

Measured: T/C

Nc1cc2c(c[n+](CCO)c3ccccc23)c2ccccc12
inactive: dose: 12.5 mg/kg/injection, schedule: Q04DX003 (ip), vehicle: water 103 % of control | dose: 25.0 mg/kg/injection, schedule: Q04DX003 (ip), vehicle: water 104 % of control | dose: 50.0 mg/kg/injection, schedule: Q04DX003 (ip), vehicle: water 110 % of control | dose: 100.0 mg/kg/injection, schedule: Q04DX003 (ip), vehicle: water 120 % of control | dose: 200.0 mg/kg/injection, schedule: Q04DX003 (ip), vehicle: water 120 % of control

O=C1NCCS1
inactive: dose: 75.0 mg/kg/injection, schedule: Q01DX001 (ip), vehicle: saline 98 % of control | dose: 150.0 mg/kg/injection, schedule: Q01DX001 (ip), vehicle: saline 104 % of control

O=C(O)c1ccccc1O.[Fe]
inactive: dose: 200.0 mg/kg/injection, schedule: Q01DX001 (ip), vehicle: saline 112 % of control

O=C(O)CSc1ccccc1
inactive: dose: 25.0 mg/kg/injection, schedule: Q04DX003 (ip), vehicle: other 98 % of control | dose: 50.0 mg/kg/injection, schedule: Q04DX003 (ip), vehicle: other 98 % of control | [1] 100 % of control | [2] 98 % of control

C=CC(=O)Nc1ccccc1
inactive: dose: 50.0 mg/kg/injection, schedule: Q04DX002 (ip), vehicle: Klucel (hydroxypropylcellulose) (HPC) 94 % of control | dose: 100.0 mg/kg/injection, schedule: Q04DX002 (ip), vehicle: Klucel (hydroxypropylcellulose) (HPC) 94 % of control | [3] 96 % of control | dose: 200.0 mg/kg/injection, schedule: Q04DX002 (ip), vehicle: Klucel (hydroxypropylcellulose) (HPC) 97 % of control | [4] 96 % of control | [5] 97 % of control

CN(C)CC(C)(C)C(=O)c1ccc(Cl)cc1
inactive: dose: 100.0 mg/kg/injection, schedule: Q04DX002 (ip), vehicle: saline 93 % of control | dose: 200.0 mg/kg/injection, schedule: Q04DX002 (ip), vehicle: saline 89 % of control

O=C(OCCO)c1oc2ccccc2c1OCCO
inactive: [6] 98 % of control | [7] 98 % of control | [8] 102 % of control

S=C(NNC(=S)Nc1ccc(Cl)cc1)NNc1ccccc1
inactive: dose: 50.0 mg/kg/injection, schedule: Q01DX009 (ip), vehicle: acetone 95 % of control | dose: 100.0 mg/kg/injection, schedule: Q01DX009 (ip), vehicle: acetone 97 % of control

CCOC(=O)Cc1ccnc(C)c1
inactive: [6] 93 % of control | [9] 100 % of control | [7] 94 % of control | [10] 103 % of control | [8] 96 % of control

OCC12OCC(O1)C(O)C(O)C2O (centres undefined)
inactive: dose: 100.0 mg/kg/injection, schedule: Q01DX009 (ip), vehicle: saline 97 % of control | dose: 200.0 mg/kg/injection, schedule: Q01DX009 (ip), vehicle: saline 103 % of control | dose: 400.0 mg/kg/injection, schedule: Q01DX009 (ip), vehicle: saline 98 % of control

CCOC(=O)C(C)(C)CN1COCC1(C)C
inactive: [6] 112 % of control | [7] 109 % of control

CC(=O)CCCSCCO
inactive: [1] 101 % of control | [2] 97 % of control | dose: 400.0 mg/kg/injection, schedule: Q04DX003 (ip), vehicle: saline 101 % of control

N#CCCC1(CCC#N)c2ccccc2-c2ccccc21
inactive: [3] 95 % of control | [4] 100 % of control | [5] 105 % of control

O=C1CSC(=S)N1/N=C/c1ccc(F)cc1
inactive: dose: 75.0 mg/kg/injection, schedule: Q01DX001 (ip), vehicle: other 100 % of control | dose: 150.0 mg/kg/injection, schedule: Q01DX001 (ip), vehicle: other 102 % of control | dose: 300.0 mg/kg/injection, schedule: Q01DX001 (ip), vehicle: other 98 % of control

C/C(=C\Cl)COC(C)(C)C
inactive: dose: 50.0 mg/kg/injection, schedule: Q01DX009 (ip), vehicle: saline with Tween-80 98 % of control | [9] 93 % of control | dose: 100.0 mg/kg/injection, schedule: Q04DX003 (ip), vehicle: acetone 101 % of control | [10] 98 % of control | dose: 200.0 mg/kg/injection, schedule: Q04DX003 (ip), vehicle: acetone 93 % of control
